Reference: PMC8534050, “Discovery of a Potent and Highly Isoform-Selective Inhibitor of the Neglected Ribosomal Protein S6 Kinase Beta 2 (S6K2)” (Cancers, 2021)

How the values were obtained:
[1] = Nα-acetyl lysine stability assay (HPLC); type: physicochemical; settings: for half-life: read-out: half-life t1/2 towards Nα-acetyl lysine (converted)
Method: (§1) The Nα-acetyl lysine stability assay was performed in analogy to the GSH stability assay by substituting GSH with Nα-acetyl lysine at pH 7.4 and additionally at pH 10.2 to mimic the pKa depression often observed for biologically relevant lysines. PBS-buffer was substituted with a sodium tetraborate buffer (28 mM) for experiments at pH 10.2.
4. Nα-Acetyl Lysine Stability Assay […]
h. The stability towards Nα-acetyl lysine at pH 10.2 was corrected for the slope of the curve of the […]
Figure S11. Nα-acetyl lysine stability assay of compound 2 at pH 7.4 and pH 10.2. Error bars represent the standard deviation of triplicate measurements. AUC: area under the curve of residual starting material 2, t: time in hours.

[2] = Aqueous degradation at pH 10.2; type: physicochemical; settings: sodium tetraborate buffer (28 mM), no nucleophile, read-out: t1/2 of aqueous degradation (converted)
Method: as §1
4. Nα-Acetyl Lysine Stability Assay

Microsomal stability = type: in vitro ADME, mouse; settings: 100 μM, NADPH-regenerating system, up to 90 min
Method: Pooled liver microsomes from mice (male) were purchased from XenoTech LLC (Sekisui XenoTech LLC, Kansas City, KS, USA). Incubation of compound 2 was made in the presence of an NADPH-regenerating system (5 mM glucose-6-phosphate, 5 U/mL glucose-6-phosphate dehydrogenase, and 1 mM NADP^+). Compound 2 (100 μM), the NADPH-regenerating system, and 4 mM MgCl2⋅6 H2O in 0.1 M Tris buffer (pH 7.4) were preincubated for 5 min at 37 °C and 750 rpm on a shaker. The incubation mix was split into aliquots (50 μL) and the reaction was started by the addition of mouse liver microsomes. The reaction was quenched at selected time points (0, 10, 20, 30, 60, and 90 min) by adding 100 μL internal standard at a concentration of 50 μM in MeCN. The samples were vortexed for 30 s and centrifuged (19,800 relative centrifugal force/4 °C/15 min). The supernatant was directly used for LC-MS analysis. All incubations were conducted in triplicates and a limit of 1% organic solvent was not exceeded. […]
Detection was performed on a Micromass Quattro micro triple quadrupole mass spectrometer (Waters GmbH, Eschborn, Germany) using electrospray ionization in positive mode. […] The data were analyzed using MassLynx 4.1 (Waters Corporation, Milford, MA, USA)

AURKB = biological target: T1, AURKB (Homo sapiens, UniProt Q96GD4); experiment: DSF thermal shift assay; type: binding; settings: inhibitor 10 μM, protein 2 μM
T1 construct: purchased in-house DSF (thermal shift) panel per Fedorov et al
Method: (§2) Differences in the melting temperature (ΔTm) were measured as described by Fedorov et al.. Purified proteins were buffered in 25 mM HEPES (pH 7.5), 500 mM NaCl and were assayed in a 384-well plate with a final protein concentration of 2 μM in 10 μL assay volume. Inhibitors were added to a final concentration of 10 μM using an ECHO 550 acoustic dispenser (Labcyte, San José, CA, USA). As a fluorescence probe, SYPRO-Orange (Molecular Probes, Eugene, OR, USA) was added in a 1:5000 dilution. […] Data were analyzed through Boltzmann equation in the Protein Thermal Shift software (Applied Biosystems, Waltham, MA, USA). Samples were measured in technical duplicates.

CAMK1G = biological target: T2, CAMK1G (Homo sapiens, UniProt Q96NX5); experiment: DSF thermal shift assay; type: binding; settings: inhibitor 10 μM, protein 2 μM
T2 construct: purchased in-house DSF (thermal shift) panel per Fedorov et al; IC50 follow-up at Reaction Biology Corp
Method: as §2

CAMK2B = biological target: T3, CAMK2B (Homo sapiens, UniProt Q13554); experiment: DSF thermal shift assay; type: binding; settings: inhibitor 10 μM, protein 2 μM
T3 construct: purchased in-house DSF (thermal shift) panel per Fedorov et al; IC50 follow-up at Reaction Biology Corp
Method: as §2

CLK3 = biological target: T4, CLK3 (Homo sapiens, UniProt P49761); experiment: DSF thermal shift assay; type: binding; settings: inhibitor 10 μM, protein 2 μM
T4 construct: purchased in-house DSF (thermal shift) panel per Fedorov et al
Method: as §2

CSNK1D = biological target: T5, CSNK1D (Homo sapiens, UniProt P48730); experiment: DSF thermal shift assay; type: binding; settings: inhibitor 10 μM, protein 2 μM
T5 construct: purchased in-house DSF (thermal shift) panel per Fedorov et al
Method: as §2

MAP2K6 = biological target: T6, MAP2K6 (Homo sapiens, UniProt P52564); experiment: DSF thermal shift assay; type: binding; settings: inhibitor 10 μM, protein 2 μM
T6 construct: purchased in-house DSF (thermal shift) panel per Fedorov et al
Method: as §2

MAPKAPK2 = biological target: T7, MAPKAPK2 (Homo sapiens, UniProt P49137); experiment: DSF thermal shift assay; type: binding; settings: inhibitor 10 μM, protein 2 μM
T7 construct: purchased in-house DSF (thermal shift) panel per Fedorov et al; IC50 follow-up at Reaction Biology Corp
Method: as §2

MARK4 = biological target: T8, MARK4 (Homo sapiens, UniProt Q96L34); experiment: DSF thermal shift assay; type: binding; settings: inhibitor 10 μM, protein 2 μM
T8 construct: purchased in-house DSF (thermal shift) panel per Fedorov et al; IC50 follow-up at Reaction Biology Corp
Method: as §2

MELK = biological target: T9, MELK (Homo sapiens, UniProt Q14680); experiment: DSF thermal shift assay; type: binding; settings: inhibitor 10 μM, protein 2 μM
T9 construct: purchased in-house DSF (thermal shift) panel per Fedorov et al
Method: as §2

MST4 = biological target: T10, MST4 (Homo sapiens, UniProt Q9P289); experiment: DSF thermal shift assay; type: binding; settings: inhibitor 10 μM, protein 2 μM
T10 construct: purchased in-house DSF (thermal shift) panel per Fedorov et al
Method: as §2

NEK7 = biological target: T11, NEK7 (Homo sapiens, UniProt Q8TDX7); experiment: DSF thermal shift assay; type: binding; settings: inhibitor 10 μM, protein 2 μM
T11 construct: purchased in-house DSF (thermal shift) panel per Fedorov et al
Method: as §2

PDK4 = biological target: T12, PDK4 (Homo sapiens, UniProt Q16654); experiment: DSF thermal shift assay; type: binding; settings: inhibitor 10 μM, protein 2 μM
T12 construct: purchased in-house DSF (thermal shift) panel per Fedorov et al; IC50 follow-up at Reaction Biology Corp
Method: as §2

PIM3 = biological target: T13, PIM3 (Homo sapiens, UniProt Q86V86); experiment: DSF thermal shift assay; type: binding; settings: inhibitor 10 μM, protein 2 μM
T13 construct: purchased in-house DSF (thermal shift) panel per Fedorov et al; IC50 follow-up at Reaction Biology Corp
Method: as §2

SRC = biological target: T14, SRC (Homo sapiens, UniProt P12931); experiment: DSF thermal shift assay; type: binding; settings: inhibitor 10 μM, protein 2 μM
T14 construct: purchased in-house DSF (thermal shift) panel per Fedorov et al
Method: as §2

STK17B = biological target: T15, STK17B (Homo sapiens, UniProt O94768); experiment: DSF thermal shift assay; type: binding; settings: inhibitor 10 μM, protein 2 μM
T15 construct: purchased in-house DSF (thermal shift) panel per Fedorov et al; IC50 follow-up at Reaction Biology Corp
Method: as §2

STK38L = biological target: T16, STK38L (Homo sapiens, UniProt Q9Y2H1); experiment: DSF thermal shift assay; type: binding; settings: inhibitor 10 μM, protein 2 μM
T16 construct: purchased in-house DSF (thermal shift) panel per Fedorov et al; IC50 follow-up at Reaction Biology Corp
Method: as §2

ULK3 = biological target: T17, ULK3 (Homo sapiens, UniProt Q6PHR2); experiment: DSF thermal shift assay; type: binding; settings: inhibitor 10 μM, protein 2 μM
T17 construct: purchased in-house DSF (thermal shift) panel per Fedorov et al
Method: as §2

VRK1 = biological target: T18, VRK1 (Homo sapiens, UniProt Q99986); experiment: DSF thermal shift assay; type: binding; settings: inhibitor 10 μM, protein 2 μM
T18 construct: purchased in-house DSF (thermal shift) panel per Fedorov et al; IC50 follow-up at Reaction Biology Corp
Method: as §2

physchem = settings: buffer
Method: The reaction temperature was chosen to be 40 °C.
Glutathione (GSH) Stability Assay
• 0 min: 40% MeOH, 60% phosphate buffer pH 2.3;
• 20 min: 85% MeOH, 15% phosphate buffer pH 2.3;
• 9 min: 95% MeOH, 5% phosphate buffer pH 2.3;
• 10 min: 95% MeOH, 5% phosphate buffer pH 2.3;

T1 sequence (Q96GD4 whole entry): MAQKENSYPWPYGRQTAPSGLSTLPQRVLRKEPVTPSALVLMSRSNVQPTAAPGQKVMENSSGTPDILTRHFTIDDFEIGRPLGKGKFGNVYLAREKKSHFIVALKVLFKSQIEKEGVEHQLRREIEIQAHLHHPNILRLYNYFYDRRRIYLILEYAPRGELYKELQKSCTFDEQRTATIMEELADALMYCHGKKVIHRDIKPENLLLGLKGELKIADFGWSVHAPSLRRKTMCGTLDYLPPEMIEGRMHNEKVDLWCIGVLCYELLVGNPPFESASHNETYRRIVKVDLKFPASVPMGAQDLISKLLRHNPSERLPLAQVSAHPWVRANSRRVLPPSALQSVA
T16 sequence (Q9Y2H1 whole entry): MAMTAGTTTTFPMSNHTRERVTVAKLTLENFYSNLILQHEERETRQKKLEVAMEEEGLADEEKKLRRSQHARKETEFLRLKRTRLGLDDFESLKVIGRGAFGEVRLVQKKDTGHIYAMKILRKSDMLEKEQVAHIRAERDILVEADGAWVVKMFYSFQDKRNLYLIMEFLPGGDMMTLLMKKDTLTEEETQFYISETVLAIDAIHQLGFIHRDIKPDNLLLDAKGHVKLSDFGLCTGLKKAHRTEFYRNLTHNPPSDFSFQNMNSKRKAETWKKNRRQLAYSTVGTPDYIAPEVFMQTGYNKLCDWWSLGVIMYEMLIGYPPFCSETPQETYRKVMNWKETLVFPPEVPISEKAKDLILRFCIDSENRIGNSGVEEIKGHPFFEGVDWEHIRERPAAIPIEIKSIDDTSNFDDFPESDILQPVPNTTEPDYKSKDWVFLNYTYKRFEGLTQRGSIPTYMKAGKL
T3 sequence (Q13554 whole entry): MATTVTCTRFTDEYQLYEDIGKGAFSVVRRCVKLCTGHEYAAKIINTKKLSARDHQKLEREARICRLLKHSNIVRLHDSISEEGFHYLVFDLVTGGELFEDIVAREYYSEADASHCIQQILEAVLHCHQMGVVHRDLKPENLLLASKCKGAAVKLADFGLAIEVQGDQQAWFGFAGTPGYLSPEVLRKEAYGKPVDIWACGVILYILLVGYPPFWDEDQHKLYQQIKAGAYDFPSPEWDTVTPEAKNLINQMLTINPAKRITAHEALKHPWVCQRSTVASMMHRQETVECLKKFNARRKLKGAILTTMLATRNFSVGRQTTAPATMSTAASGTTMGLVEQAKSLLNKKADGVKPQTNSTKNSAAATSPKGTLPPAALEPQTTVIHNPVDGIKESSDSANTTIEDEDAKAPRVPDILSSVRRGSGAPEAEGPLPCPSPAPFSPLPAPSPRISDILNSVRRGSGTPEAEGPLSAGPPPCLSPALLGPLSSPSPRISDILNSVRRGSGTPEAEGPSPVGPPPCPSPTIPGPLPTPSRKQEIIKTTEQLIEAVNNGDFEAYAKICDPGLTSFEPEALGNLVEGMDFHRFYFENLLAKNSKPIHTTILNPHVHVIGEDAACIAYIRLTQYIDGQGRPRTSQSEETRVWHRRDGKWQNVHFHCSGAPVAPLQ
T2 sequence (Q96NX5 whole entry): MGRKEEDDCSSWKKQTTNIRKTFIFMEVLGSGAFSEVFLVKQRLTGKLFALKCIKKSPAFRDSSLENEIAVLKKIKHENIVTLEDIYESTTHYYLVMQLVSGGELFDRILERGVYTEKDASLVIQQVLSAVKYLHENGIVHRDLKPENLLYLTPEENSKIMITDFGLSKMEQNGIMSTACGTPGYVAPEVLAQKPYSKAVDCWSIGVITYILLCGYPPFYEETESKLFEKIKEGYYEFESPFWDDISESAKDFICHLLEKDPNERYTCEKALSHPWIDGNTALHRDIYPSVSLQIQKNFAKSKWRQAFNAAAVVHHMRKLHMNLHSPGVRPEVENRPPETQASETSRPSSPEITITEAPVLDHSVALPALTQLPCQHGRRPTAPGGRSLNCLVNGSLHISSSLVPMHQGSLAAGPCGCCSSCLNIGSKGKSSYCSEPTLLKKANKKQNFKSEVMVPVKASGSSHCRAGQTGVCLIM
T7 sequence (P49137 whole entry): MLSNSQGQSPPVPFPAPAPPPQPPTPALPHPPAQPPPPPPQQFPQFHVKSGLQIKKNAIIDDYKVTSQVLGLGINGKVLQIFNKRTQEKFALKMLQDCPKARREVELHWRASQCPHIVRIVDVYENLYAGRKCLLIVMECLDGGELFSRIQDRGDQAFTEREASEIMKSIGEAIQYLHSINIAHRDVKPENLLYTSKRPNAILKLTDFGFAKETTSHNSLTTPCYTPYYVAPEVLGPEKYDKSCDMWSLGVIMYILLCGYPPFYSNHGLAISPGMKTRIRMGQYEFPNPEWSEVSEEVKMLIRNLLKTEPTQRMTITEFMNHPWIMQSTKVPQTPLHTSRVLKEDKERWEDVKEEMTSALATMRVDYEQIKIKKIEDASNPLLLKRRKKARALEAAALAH
T5 sequence (P48730 whole entry): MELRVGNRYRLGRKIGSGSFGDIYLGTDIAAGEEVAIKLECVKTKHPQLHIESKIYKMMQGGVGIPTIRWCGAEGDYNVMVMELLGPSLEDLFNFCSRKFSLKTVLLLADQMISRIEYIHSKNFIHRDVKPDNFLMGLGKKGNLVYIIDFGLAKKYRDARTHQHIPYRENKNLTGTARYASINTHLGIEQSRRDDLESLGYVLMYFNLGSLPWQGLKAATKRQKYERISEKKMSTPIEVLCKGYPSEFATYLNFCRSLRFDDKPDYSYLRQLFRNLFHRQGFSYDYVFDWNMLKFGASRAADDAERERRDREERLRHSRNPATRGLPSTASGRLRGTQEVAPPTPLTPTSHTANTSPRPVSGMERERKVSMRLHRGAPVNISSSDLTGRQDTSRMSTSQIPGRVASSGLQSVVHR
T9 sequence (Q14680 whole entry): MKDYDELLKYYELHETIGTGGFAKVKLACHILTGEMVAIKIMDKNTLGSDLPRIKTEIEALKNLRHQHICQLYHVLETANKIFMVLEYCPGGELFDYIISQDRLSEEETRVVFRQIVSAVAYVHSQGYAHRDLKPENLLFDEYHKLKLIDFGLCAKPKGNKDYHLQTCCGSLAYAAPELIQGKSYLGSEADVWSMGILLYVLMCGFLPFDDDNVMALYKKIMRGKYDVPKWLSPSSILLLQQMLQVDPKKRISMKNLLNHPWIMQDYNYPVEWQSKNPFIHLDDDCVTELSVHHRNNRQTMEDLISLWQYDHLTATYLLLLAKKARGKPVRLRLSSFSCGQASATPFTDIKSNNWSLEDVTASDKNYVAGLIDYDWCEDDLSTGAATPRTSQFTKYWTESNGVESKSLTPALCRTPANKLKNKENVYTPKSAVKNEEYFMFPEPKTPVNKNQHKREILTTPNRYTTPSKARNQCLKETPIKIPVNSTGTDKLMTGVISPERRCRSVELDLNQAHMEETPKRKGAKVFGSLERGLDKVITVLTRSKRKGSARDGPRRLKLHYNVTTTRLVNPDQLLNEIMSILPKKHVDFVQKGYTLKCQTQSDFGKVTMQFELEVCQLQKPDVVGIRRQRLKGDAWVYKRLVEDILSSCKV
T15 sequence (O94768 whole entry): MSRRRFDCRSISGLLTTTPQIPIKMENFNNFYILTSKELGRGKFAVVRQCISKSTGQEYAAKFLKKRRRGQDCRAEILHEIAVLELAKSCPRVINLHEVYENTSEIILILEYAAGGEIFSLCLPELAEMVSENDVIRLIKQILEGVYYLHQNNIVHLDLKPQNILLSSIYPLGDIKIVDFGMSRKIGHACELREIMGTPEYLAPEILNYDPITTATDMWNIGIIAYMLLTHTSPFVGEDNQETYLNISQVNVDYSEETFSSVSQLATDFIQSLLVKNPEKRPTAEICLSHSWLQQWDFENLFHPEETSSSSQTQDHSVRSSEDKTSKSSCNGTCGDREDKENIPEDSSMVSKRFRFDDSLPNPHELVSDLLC
T6 sequence (P52564 whole entry): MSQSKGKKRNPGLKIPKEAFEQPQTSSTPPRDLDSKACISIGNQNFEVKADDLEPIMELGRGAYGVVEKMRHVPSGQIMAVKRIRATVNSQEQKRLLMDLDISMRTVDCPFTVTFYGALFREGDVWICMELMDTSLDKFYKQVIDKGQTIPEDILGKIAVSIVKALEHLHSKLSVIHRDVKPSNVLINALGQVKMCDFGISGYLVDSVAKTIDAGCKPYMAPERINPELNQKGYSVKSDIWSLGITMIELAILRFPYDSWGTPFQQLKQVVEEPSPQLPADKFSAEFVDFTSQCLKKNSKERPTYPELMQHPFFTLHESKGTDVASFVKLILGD
T17 sequence (Q6PHR2 whole entry): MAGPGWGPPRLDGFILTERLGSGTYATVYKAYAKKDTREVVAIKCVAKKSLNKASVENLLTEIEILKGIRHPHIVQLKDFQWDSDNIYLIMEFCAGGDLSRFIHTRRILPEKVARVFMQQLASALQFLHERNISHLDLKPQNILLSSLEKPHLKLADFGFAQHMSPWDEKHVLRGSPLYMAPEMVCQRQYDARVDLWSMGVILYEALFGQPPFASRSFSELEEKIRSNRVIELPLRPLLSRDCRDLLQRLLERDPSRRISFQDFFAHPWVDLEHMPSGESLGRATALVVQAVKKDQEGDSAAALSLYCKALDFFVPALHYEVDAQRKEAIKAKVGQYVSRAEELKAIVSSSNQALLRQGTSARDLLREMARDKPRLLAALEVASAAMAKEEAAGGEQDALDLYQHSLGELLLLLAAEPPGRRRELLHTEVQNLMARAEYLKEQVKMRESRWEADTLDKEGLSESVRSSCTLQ

## CCc1cnc(Nc2nc(Cl)ccc2[N+](=O)[O-])nc1N1CCN(Cc2nc3cc(C(F)(F)F)ccc3[nH]2)CC1 [Compound 2]
[1]; Nα-acetyl lysine in MeCN/PBS buffer, pH 7.4
  half-life: 1160 h
[1]; Nα-acetyl lysine in sodium tetraborate buffer (28 mM), pH 10.2, corrected for aqueous degradation
  half-life: 27 h
[1]; physiological pH
  reactivity towards Nα-acetyl lysine: negligible reactivity
[2]
  half-life: 139 h
Microsomal stability
  stability in mouse liver microsomes: acceptable stability
AURKB
  ΔTm at 10 µM: 0 °C
CAMK1G
  ΔTm at 10 µM: -0.6 °C
CAMK2B
  ΔTm at 10 µM: -2.3 °C
CLK3
  ΔTm at 10 µM: 0.1 °C
CSNK1D
  ΔTm at 10 µM: 0.2 °C
MAP2K6
  ΔTm at 10 µM: 0.5 °C
MAPKAPK2
  ΔTm at 10 µM: -0.3 °C
MARK4
  ΔTm at 10 µM: 0.1 °C
MELK
  ΔTm at 10 µM: 0.4 °C
MST4
  ΔTm at 10 µM: -1.1 °C
NEK7
  ΔTm at 10 µM: 0.2 °C
PDK4
  ΔTm at 10 µM: -0.1 °C
PIM3
  ΔTm at 10 µM: -0.6 °C
SRC
  ΔTm at 10 µM: -0.5 °C
STK17B
  ΔTm at 10 µM: -0.8 °C
STK38L
  ΔTm at 10 µM: -0.2 °C
ULK3
  ΔTm at 10 µM: 0.4 °C
VRK1
  ΔTm at 10 µM: -0.4 °C
physchem
  half-life at […]: 55 h
